# Measurements from ChEMBL document CHEMBL1152115, “Optically active fluorinated cyclobutane nucleoside analogs with potent anti-herpes activity” (1993).
# Assays:
# Human alphaherpesvirus 1 [1] = experiment: Effective dose required to inhibit cell growth against HSV-1 (schooler); assay type: functional; settings: read-out: ED50 (the source's name)
# Human betaherpesvirus 5 [2] = experiment: Effective dose required to inhibit cell growth against HCMV (AD169); assay type: functional; settings: read-out: ED50 (the source's name)
# Human alphaherpesvirus 3 [3] = experiment: Effective dose required to inhibit cell growth against VZV (Ellen); assay type: functional; settings: read-out: ED50 (the source's name)
# Human alphaherpesvirus 2 [4] = experiment: Effective dose required to inhibit cell growth against HSV-2 (186); assay type: functional; settings: read-out: ED50 (the source's name)
# Human alphaherpesvirus 2 [5] = experiment: Effective dose required to inhibit cell growth against HSV-2 (186); Value ranges from 0.3-0.7; assay type: functional; settings: read-out: ED50 (the source's name)
# Human alphaherpesvirus 3 [6] = experiment: Effective dose required to inhibit cell growth against VZV (Ellen); Value ranges from 0.7-1.7; assay type: functional; settings: read-out: ED50 (the source's name)
# Human betaherpesvirus 5 [7] = experiment: Effective dose required to inhibit cell growth against HCMV (AD169); Value ranges from 18-35; assay type: functional; settings: read-out: ED50 (the source's name)
# Human alphaherpesvirus 1 [8] = experiment: Effective dose required to inhibit cell growth against HSV-1 (schooler); Value ranges from 0.7-1.7; assay type: functional; settings: read-out: ED50 (the source's name)
# Human alphaherpesvirus 2 [9] = experiment: microbe, parasite or virus in culture; settings: Human alphaherpesvirus 2, read-out: ED50
# Human alphaherpesvirus 3 [10] = experiment: microbe, parasite or virus in culture; settings: Human alphaherpesvirus 3, read-out: ED50
# Human alphaherpesvirus 1 [11] = experiment: microbe, parasite or virus in culture; settings: Human alphaherpesvirus 1, read-out: ED50
# Human betaherpesvirus 5 [12] = experiment: Effective dose required to inhibit cell growth against HCMV (AD169); Value ranges from 20-40; assay type: functional; settings: read-out: ED50 (the source's name)
# Human alphaherpesvirus 3 [13] = experiment: Effective dose required to inhibit cell growth against VZV (Ellen); Value ranges from 25-63; assay type: functional; settings: read-out: ED50 (the source's name)
# Human alphaherpesvirus 1 [14] = experiment: Effective dose required to inhibit cell growth against HSV-1 (schooler); Value ranges from 0.7-1.8; assay type: functional; settings: read-out: ED50 (the source's name)
# Human alphaherpesvirus 3 [15] = experiment: Effective dose required to inhibit cell growth against VZV (Ellen); Value ranges from 1.8-3.5; assay type: functional; settings: read-out: ED50 (the source's name)
# Human betaherpesvirus 5 [16] = experiment: Effective dose required to inhibit cell growth against HCMV (AD169); Value ranges from 3.5-35; assay type: functional; settings: read-out: ED50 (the source's name)
# Human alphaherpesvirus 2 [17] = experiment: Effective dose required to inhibit cell growth against HSV-2 (186); Value ranges from 88-176; assay type: functional; settings: read-out: ED50 (the source's name)
# Human alphaherpesvirus 3 [18] = experiment: Effective dose required to inhibit cell growth against VZV (Ellen); Value ranges from 88-177; assay type: functional; settings: read-out: ED50 (the source's name)
compound,measurement,setting,value
O=c1[nH]c(=O)n([C@@H]2C(F)[C@H](CO)C2CO)cc1/C=C/Br (stereo partly drawn),EC50,Human alphaherpesvirus 1 [1],> 286 µM
same,EC50,Human betaherpesvirus 5 [2],> 286 µM
same,EC50,Human alphaherpesvirus 3 [3],286 µM
same,EC50,Human alphaherpesvirus 2 [4],> 286 µM
"Nc1nc(O)c2ncn([C@@H]3C(F)[C@H](CO)C3CO)c2n1 (single isomer, unassigned; (-))",EC50,Human alphaherpesvirus 2 [5],300 nM
same,EC50,Human alphaherpesvirus 3 [6],700 nM
same,EC50,Human betaherpesvirus 5 [7],18 µM
same,EC50,Human alphaherpesvirus 1 [8],700 nM
Nc1nc2c(ncn2COCCO)c(=O)[nH]1 [ACYCLOVIR],EC50,Human alphaherpesvirus 2 [9],400 nM
same,EC50,Human alphaherpesvirus 3 [10],2000 nM
same,EC50,Human alphaherpesvirus 1 [11],200 nM
same,EC50,Human betaherpesvirus 5 [12],20 µM
O=c1[nH]c(=O)n([C@@H]2C(F)[C@H](CO)C2CO)cc1/C=C/I (stereo partly drawn),EC50,Human alphaherpesvirus 1 [1],> 252 µM
same,EC50,Human alphaherpesvirus 3 [13],25 µM
same,EC50,Human betaherpesvirus 5 [2],> 252 µM
same,EC50,Human alphaherpesvirus 2 [4],> 252 µM
Nc1nc(O)c2ncn([C@@H]3C(F)[C@H](CO)C3CO)c2n1 (mixture of isomers),EC50,Human alphaherpesvirus 1 [14],700 nM
same,EC50,Human alphaherpesvirus 3 [15],1800 nM
same,EC50,Human betaherpesvirus 5 [16],3.5 µM
same,EC50,Human alphaherpesvirus 2 [4],0.7 µM
Nc1ccn([C@@H]2C(F)C(CO)[C@@H]2CO)c(=O)n1 (stereo partly drawn),EC50,Human alphaherpesvirus 1 [1],> 411 µM
same,EC50,Human betaherpesvirus 5 [2],> 411 µM
same,EC50,Human alphaherpesvirus 3 [3],> 411 µM
same,EC50,Human alphaherpesvirus 2 [4],≥ 411 µM
Nc1nc(O)c2ncn([C@@H]3C(F)[C@H](CO)C3CO)c2n1 (stereo partly drawn),EC50,Human alphaherpesvirus 1 [1],88 µM
same,EC50,Human betaherpesvirus 5 [2],> 353 µM
same,EC50,Human alphaherpesvirus 2 [17],88 µM
same,EC50,Human alphaherpesvirus 3 [18],88 µM
